Source: ChEMBL document CHEMBL1158284, “Biological activities of the nortropane alkaloid, calystegine B2, and analogs: structure-function relationships” (J Nat Prod, 1996)
The source made the active and inactive calls. The rule behind the calls is not given here.

Experiments:
Medicago sativa [1] = assay: Allellopathic effect in Medicago sativa assessed as reduction in root elongation at 10 mM after 19 hrs; type: functional; design: scale not given: the % may be the effect or the level left
Medicago sativa [2] = assay: Allellopathic effect in Medicago sativa assessed as reduction in root elongation at 5 mM after 43 hrs; type: functional; design: scale not given: the % may be the effect or the level left
Medicago sativa [3] = assay: Allellopathic effect in Medicago sativa assessed as inhibition of seed germination up to 10 mM; type: functional, organism-based
Agrobacterium rhizogenes = assay: Antibacterial activity against Cac gene-deficient Agrobacterium rhizogenes HRI; type: functional, organism-based
Sinorhizobium meliloti [4] = assay: Antibacterial activity against Cac gene-deficient Rhizobium meliloti RCR2011; type: functional, organism-based
Sinorhizobium meliloti [5] = assay: Antibacterial activity against Cac gene-deficient Rhizobium meliloti GMI13; type: functional, organism-based
Medicago sativa [6] = assay: Allellopathic effect in Medicago sativa assessed as reduction in root elongation at 5 mM after 19 hrs; type: functional; design: scale not given: the % may be the effect or the level left
Prunus dulcis [7] = assay: Inhibition of almond beta-glucosidase at 0.5 mg/mL
Aspergillus niger [8] = assay: Inhibition of Aspergillus niger alpha-galactosidase 1.0 mg/mL
Medicago sativa [9] = assay: Allellopathic effect in Medicago sativa assessed as reduction in root elongation at 10 mM after 43 hrs; type: functional; design: scale not given: the % may be the effect or the level left
[10] = test system: Agrobacterium tumefaciens; assay: Antibacterial activity against Cac gene-deficient Agrobacterium tumefaciens C58C1; type: functional, organism-based
Aspergillus niger [11] = assay: (§1) Inhibition of Aspergillus niger alpha-galactosidase
Prunus dulcis [12] = assay: (§2) Inhibition of almond beta-glucosidase
[13] = as §1
[14] = as §2; design: species or system Prunus dulcis
Sinorhizobium meliloti [15] = assay: Induction of Cac gene-expressing Rhizobium meliloti 41 growth; type: functional, organism-based
Medicago sativa [16] = assay: Allellopathic effect in Medicago sativa assessed as inhibition of seed germination at 5 mM; type: functional

O[C@H]1[C@H](O)[C@H](O)[C@@]2(O)CC[C@@H]1N2
Activity (Medicago sativa [1]): 25% | Activity (Medicago sativa [2]): 8% | Activity (Medicago sativa [3]): inactive | Activity (Agrobacterium rhizogenes): inactive | Activity (Sinorhizobium meliloti [4]): inactive | Activity (Sinorhizobium meliloti [5]): inactive | Activity (Medicago sativa [6]): 20% | Activity (Prunus dulcis [7]): inactive | Activity (Aspergillus niger [8]): inactive | Activity (Medicago sativa [9]): 18% | Activity [10]: inactive

CN1[C@@H]2CC[C@@]1(O)[C@@H](O)[C@H](O)[C@H]2O
Activity (Aspergillus niger [11]): Active | Activity (Prunus dulcis [12]): inactive

O[C@@H]1[C@@H](O)[C@H](O)[C@]2(O)CC[C@H]1N2 [CALYSTEGINE B2]
Activity (Medicago sativa [1]): 46% | Activity (Medicago sativa [2]): 12% | Ki [13]: 7 µM | Ki [14]: 4 µM | Activity (Agrobacterium rhizogenes): inactive | Activity (Sinorhizobium meliloti [4]): inactive | Activity (Sinorhizobium meliloti [5]): inactive | Activity (Medicago sativa [6]): 37% | Activity (Medicago sativa [9]): 40% | Activity (Sinorhizobium meliloti [15]): Active | inhibition at 5000 µM (Medicago sativa [16]): 50% | Activity [10]: inactive
